The text below walks through data of patent US9421492B2, “Aminopyridine derivatives for removal of hydrogen sulfide from a gas mixture” (Dow Global Technologies LLC, priority 2011, dated 2016).

This series can be described thus: Solubility in unbuffered water. The settings on record: unbuffered de-ionized water, 25° C., average of three experiments.

Description: The experiment is repeated three times and the average solubilities are reported as weight percent (wt %) in Table 1.

In the case of “1-hydroxyethyl-4-pyridynyl-pyperazine [HEPP]”, the “Solubility, wt %” value worked out at 60 wt %.
To `CN(C)c1ccncc1` [DMAP, 4-dimethylaminopyridine] belongs 8 wt %; to `Cc1cc(N(C)C)cc(C)n1` [DMAPL, 2,6-dimethyl-4-(dimethylamino)pyridine], 3 wt %; to `Cc1cc(N(C)C)ccn1` [DMAPP, 2-methyl-4-(dimethylamino)pyridine], 5 wt %.
